Results published in ChEMBL document CHEMBL1201862, “PubChem BioAssay data set” (2004).
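Five compound concentrations were applied to cells in 96-well plates for 48 hours; endpoints were derived by simple linear interpolation of the resulting dose-response curve. GI50: concentration for 50% inhibition of growth.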 Calls of active or inactive are those of the source. Cut-off read from the data, not from the text of the source: active = GI50 up to about 1.1 µM and inactive = higher.

Experiments:
Test in all cases: growth of human tumour cells (NCI), 48 h
KM-20L2 = system: KM-20L2
SK-OV-3 = system: SK-OV-3
K562 = system: K562
A498 = system: A498
A549 = system: A549
HCT-116 = system: HCT-116
TK-10 = system: TK-10
HCC 2998 = system: HCC 2998
IGROV-1 = system: IGROV-1
ACHN = system: ACHN
786-0 = system: 786-0
UACC-62 = system: UACC-62
OVCAR-3 = system: OVCAR-3
CCRF-CEM = system: CCRF-CEM
COLO 205 = system: COLO 205
SF-539 = system: SF-539
M19-MEL = system: M19-MEL
HOP-92 = system: HOP-92
DMS-114 = system: DMS-114
Malme-3M = system: Malme-3M
NCI-H522 = system: NCI-H522
UO-31 = system: UO-31
NCI-H23 = system: NCI-H23
OVCAR-4 = system: OVCAR-4
KM12 = system: KM12
UACC-257 = system: UACC-257
SF-268 = system: SF-268
NCI-H460 = system: NCI-H460
HT-29 = system: HT-29
SK-MEL-28 = system: SK-MEL-28
RPMI-8226 = system: RPMI-8226
HOP-62 = system: HOP-62
OVCAR-8 = system: OVCAR-8
SW-620 = system: SW-620
DLD-1 = system: DLD-1
M14 = system: M14
EKVX = system: EKVX
MOLT-4 = system: MOLT-4
RXF 393 = system: RXF 393
SN12C = system: SN12C
SK-MEL-5 = system: SK-MEL-5
SNB-19 = system: SNB-19
SK-MEL-2 = system: SK-MEL-2
SF-295 = system: SF-295
CAKI-1 = system: CAKI-1
HL-60 = system: HL-60
SR = system: SR
OVCAR-5 = system: OVCAR-5
SNB-75 = system: SNB-75
DMS-273 = system: DMS-273
LXFL 529 = system: LXFL 529
SNB-78 = system: SNB-78
LOX IMVI = system: LOX IMVI

Measured: GI50

CNS(=O)(=O)NNS(=O)(=O)c1ccc(C)cc1
inactive: KM-20L2 > 100 µM | SK-OV-3 > 100 µM | K562 > 100 µM | A498 > 100 µM | A549 > 100 µM | HCT-116 > 100 µM | TK-10 > 100 µM | HCC 2998 > 100 µM | IGROV-1 > 100 µM | ACHN > 100 µM | 786-0 > 100 µM | UACC-62 > 100 µM | OVCAR-3 > 100 µM | CCRF-CEM > 100 µM | COLO 205 > 100 µM | SF-539 > 100 µM | M19-MEL > 100 µM | HOP-92 > 100 µM | DMS-114 > 100 µM | Malme-3M > 100 µM | NCI-H522 > 100 µM | UO-31 > 100 µM | NCI-H23 > 100 µM | OVCAR-4 > 100 µM | KM12 > 100 µM | UACC-257 > 100 µM | SF-268 > 100 µM | NCI-H460 > 100 µM | HT-29 > 100 µM | SK-MEL-28 > 100 µM | RPMI-8226 > 100 µM | HOP-62 > 100 µM | OVCAR-8 > 100 µM | SW-620 > 100 µM | DLD-1 > 100 µM | M14 > 100 µM | EKVX > 100 µM | MOLT-4 > 100 µM | RXF 393 > 100 µM | SN12C > 100 µM | SK-MEL-5 > 100 µM | SNB-19 > 100 µM | SK-MEL-2 > 100 µM | SF-295 > 100 µM | CAKI-1 > 100 µM | HL-60 > 100 µM | SR > 100 µM | OVCAR-5 > 100 µM

CC1=C[P+](Cc2ccccc2)(c2ccccc2)CC1 (centres undefined)
inactive: K562 93.8 µM | UACC-62 64.3 µM | OVCAR-3 43.2 µM | COLO 205 31.7 µM | M19-MEL 31.8 µM | SNB-75 61.1 µM | DMS-114 28.6 µM | DMS-273 80.9 µM | NCI-H522 67.5 µM | NCI-H23 97.1 µM | OVCAR-4 > 100 µM | KM12 85.3 µM | LXFL 529 37.7 µM | UACC-257 27.8 µM | HT-29 65.2 µM | SNB-78 > 100 µM | RPMI-8226 24.1 µM | DLD-1 > 100 µM | M14 71.6 µM | LOX IMVI 77.3 µM | EKVX 80.2 µM | SK-MEL-5 30.9 µM | SK-MEL-2 78.7 µM | SF-295 > 100 µM | HL-60 30.1 µM | SR 74.3 µM
